Experimental data published in patent US7083814B2, “Antiviral substances from plant cuticular and epicuticular material” (Rutgers, The State University of New Jersey, priority 2000, dated 2006).

Tests used:
HIV-1RF = assay: Anti-HIV-1 Cytoprotection Assay (XTT); settings: AZT control
in vitro = settings: African green monkey
[1] = system: herpes simplex virus type 1 strain HF; assay: Anti-HSV-1 Cytoprotection Assay (CPE reduction, MTS)

| IC50 (in vitro) [nM] | Compound | positive control result (HIV-1RF) | IC50 ([1]; Human alphaherpesvirus 1) [nM] | IC50 ([1]; Human alphaherpesvirus 1, Vero) [nM] |
| --- | --- | --- | --- | --- |
| – | Cc1cn([C@H]2C[C@H](N=[N+]=[N-])[C@@H](CO)O2)c(=O)[nH]c1=O [AZT] | within the expected parameters | – | – |
| > 100000 | Nc1nc2c(ncn2COCCO)c(=O)[nH]1 [Acyclovir] | – | 2400 | 2400 |
